This note sets out measurements from patent US20230165965A1, “NEW COUMARIN-POLYMER CONJUGATES AND USES THEREOF” (Onyel Biotech S.r.l., priority 2020, published 2023).

The nature of series [1]: Atomic force measurement (AFM) of hydrogel Young's modulus. It is filed as physicochemical. The following applies: 1-photon UV mediated cycloaddition. As to the method:
With the aim to provide glass surface HCCA-groups for covalent bonding HCC-branched polymers solutions were drop-cast onto glass coverslip previously functionalized with HCCA- as described in Section 10. HCC-4arm PEG and HCC-8arm PEG were dissolved in PBS (300 mg/mL) at room temperature under agitation. HCC-Gel was dissolved in PBS (100 mg/mL) under agitation at 60° C. for 10 min. When coverslips were used, a second coverslip was placed on top of the drop of HCC-polymeric solutions to limit water evaporation during the irradiation process. […] Laser power is measured before objective back aperture, corresponding to about 1% of the power on the sample plane. […]
For crosslinking reaction analysis, 5 μL CMMC-4 arm PEG (300 mg/mL) or CMMC-Gel (100 mg/mL) solution was located in a humid chamber at 3 cm from a 365 nm UV LED Gen 2 Emitter LZ4-04UV00 (Led Engin) and irradiated for different minutes as reported. When CMMC-Gel solution was analysed at different concentrations (100 mg/mL, 120 mg/mL, 140 mg/mL, 160 mg/mL, 180 mg/mL and 200 mg/mL), 5 μL of solution was located in a humid chamber at 3 cm from a 365 nm UV LED Gen 2 Emitter LZ4-04UV00 (Led Engin) and irradiated for 3 minutes. […]
The Young's modulus was calculated applying a fit of the Hertz model to the force curve, assuming a Poisson ratio of 0.5. […]

The test system of series [2] is human small intestinal organoids (hSIOs). It is filed as cell-based. The following applies: open square-box hydrogel, up to 8 days of culture. From the text: (§1) ImageJ software were used for adjustments of levels and contrast, maximum and standard deviation intensity projections, 3D reconstructions and thresholding to create binary mask used for directionality and ferret angle measurements. To quantify the directionality of i3D bioprinted cells, at least 9 fluorescence images of independent biological triplicates for each sample were converted in binary masks, then analyzed with directionality plugin of ImageJ software (that indicates the amount of structures in a given direction). To quantify the shape of enclosed hSIOs, at least 9 fluorescence images of independent biological triplicates for each sample were converted in binary masks, then analyzed with measure plugin of ImageJ software to quantify the Feret's angle (the angle between the longest distance of the axis of any two points along the selection boundary (Feret's diameter) and a line parallel to the x-axis of the image).

Series [3] concerns skeletal muscle. The settings on record: GFP+MuSC/mCherry+FB-laden, i3D bioprinted. As to the method:
(§2) Mice were anaesthetized using i.p. injection of Zoletil® 50/50 (40 mg/kg) and Rompun® 2% Xilazina (5 mg/kg) in physiologic solution. Induction of deep surgical anaesthesia was confirmed by absence of reaction to hind foot pinch. The surgical procedure underwent in aseptic conditions (skin preparation, sterilized instruments, gloves and drapes). […] For blood flow analysis, Rhodamine B isothiocyanate-Dextran (Sigma, R9379) was injected in tail vein at 50 mg/mL in physiologic solution. When required, skin wound was closed with Vicryl 6-0 suture and no movement or space restriction were applied to animals after treatments. At the required time point, animals were deeply anesthetized, subjected to stereomicroscope and/or 2P intravital imaging, then sacrificed for tissues collection.
ImageJ software were used for adjustments of levels and contrast, maximum and standard deviation intensity projections, 3D reconstructions and thresholding to create binary mask used for directionality and ferret angle measurements. To quantify the directionality of i3D bioprinted cells, at least 9 fluorescence images of independent biological triplicates for each sample were converted in binary masks, then analyzed with directionality plugin of ImageJ software (that indicates the amount of structures in a given direction). […]

For series [4], the system named is HUVEC cells. The following applies: seeded on hydrogels.
Method: HUVEC were transduced with a lentiviral vector encoding for eGFP (3) and cultured in Endothelial Growth Media (EGM, Lonza). […] After culture, cells were fixed in 4% (w/v) paraformaldehyde (PFA, Sigma-Aldrich) in PBS for 7 min at room temperature and maintained at 4° C. in PBS until use. […] After culture, cells were fixed in 4% (w/v) paraformaldehyde (PFA, Sigma-Aldrich) in PBS for 7 min at room temperature and maintained at 4° C. in PBS until use.
Series [5] has as its system mCherry+FBs. The settings on record: for organization of donor mCherry+FBs: under epimysium, 21 days. Here is the method:
as §2

Series [6] has as its system Murine muscle-derived stem cells (MuSC). Here is the method: Cells were expanded for 1 passage at 37° C. in cell incubator, using proliferating medium composed by DMEM supplemented with 20% horse serum, 10% fetal bovine serum (Gibco), 1% chicken embryo extract (Sera Laboratories International), bFGF ([…], Invitrogen #PHG0264) and 1% Pen/Strep (Thermofisher). […] Samples were cultured in proliferating media and analyzed 2 days after 3D bioprinting (cell directionality was quantified as reported above). […] After 5 days of culture in proliferating medium, differentiation medium (DMEM supplemented with 2% horse serum and 1% Pen/Strep) was used for the following 5 days of cell culture. After 10 days, samples were fixed in 4% (w/v) paraformaldehyde (PFA, Sigma-Aldrich) in PBS for 7 min at room temperature and maintained at 4° C. in PBS until use.
as §1

Series [7] concerns Fibroblasts (FBs). The settings on record: ΔZ up to 150 μm, interspace down to 10 μm.
Method: For 3D cell laden culture, 10^4 cells were seeded into Matrigel, or Matrigel or CMMC-Gel exposed to UV light for 3 minutes at an irradiation distance of 3 millimeters, located in a 24 multiwell culture dish, cultured for 2 days at 37° C. and 5% CO2 in cell incubator before performing cell viability assay as described above. […] 2P-cell laden constructs were analyzed by imaging or AFM as described above.
Series [8] can be described thus: Single-photon absorption spectra analysis of coumarin derivatives. In kind it is physicochemical. As to the method:
Table 1, below, reports the absorbance spectra analysis of selected coumarin derivatives dissolved in PBS at pH 7.4, the maximum single photon absorption wavelengths in specific solvents are indicated.
Selected coumarin derivatives were dissolved in DMSO at a concentration of 5 mg/ml and diluted 1:500 in PBS, pH 7.4. The absorption spectra were recorded on an Evolution 201 UV-Vis spectrophotometer (Thermo Fisher Scientific, Waltham, Mass., USA) in the wavelength range of 250-450 nm.

Where two headings read alike, the source gives them in different places.

As for “7-(carboxymethoxy)-4-methylcoumarin-gelatin [CMMC-Gel]”, the “elastic modulus with increasing irradiation time” value in series [1] is listed as “increases to asymptotic values”.

On to “7-hydroxycoumarin-3-carboxamide-gelatin [HCC-Gel]”, for which the “columnar epithelium of enclosed hSIOs” value in series [2] was “well-developed columnar epithelium”. Also, the “de novo skeletal muscle tissue formation” value in series [3] (7 days) is listed as “supports de novo skeletal muscle tissue formation”. For the same compound, in series [3] (one week), the “organization of donor GFP cells” value is recorded as “confined bundle of elongated GFP cells”. For the same compound, in series [4], the “adhesion and culture of HUVEC cells” value was “supported adhesion and culture”. In addition, in series [5] (intra-dermal injection and i3D bioprinting across epidermis, 14 days), the “localization of donor mCherry+FBs” value was “Elongated localization”. The entries for the “organization of donor mCherry+FBs” value in series [5] (i3D bioprinted parallelepiped-shaped constructs) and in series [5] (injected only (no i3D bioprinting)) were “elongated clusters” and “rounded clusters”, respectively. Moreover, the “cell directionality of MuSC” value in series [6] (cuboid-shaped structures) is reported as “randomly oriented”; in series [6] (elongated-shaped structures), “oriented along major axis of the 3D structures”. Further, in series [6] (parallelepiped-shaped structures, 10 days of culture), the myotube formation entry is “support the formation of aligned multinucleated myotubes”. The “adhesion of GFP FBs to parallelepiped-shaped hydrogels” value in series [7] is “efficiently adhere”.

Turning to `Cc1c(CC(=O)O)c(=O)oc2cc(N)ccc12` [7-Amino-4-methyl-3-coumarinylacetic acid], in series [8] (Solvent: Methanol), the “Abs λ” value was 340 nm.

Take `Cc1cc(=O)oc2cc(OCC(=O)O)ccc12` [7-Carboxymethoxy-4-methylcoumarin]: the “Abs λ” value in series [8] (Solvent: Ethanol) stood at 321 nm.

On to `O=c1cc(C(F)(F)F)c2ccc(O)cc2o1` [7-Hydroxy-4-(trifluoromethyl)coumarin], for which, in series [8] (Solvent: Ethanol), the “Abs λ” value stood at 383 nm.

Take `Cc1cc(=O)oc2cc(O)ccc12` [7-Hydroxy-4-methylcoumarin]: the “Abs λ” value in series [8] (Solvent: 95% Ethanol) came to 322 nm.

With `O=C(ON1C(=O)CCC1=O)c1cc2ccc(O)cc2oc1=O` [7-Hydroxycoumarin-3-carboxylic acid N-succinimidyl ester], in series [8] (solvent not given), the “Abs λ” value is reported as 413 nm.

Consider `O=c1ccc2ccc(O)cc2o1` [7-Hydroxycoumarin], for which the “Abs λ” value in series [8] (Solvent: 95% Ethanol) came to 325 nm.

Regarding `CCOC(=O)c1cc2ccc(O)cc2oc1=O` [Ethyl 7-Hydroxycoumarin-3-carboxylate], the “Abs λ” value in series [8] (Solvent: Ethanol) is 403 nm.
